Assays:
Format in all cases: cell-based
[1] = test system: TRAP activity of RAW264.7 cells induced by RANKL; assay: TRAP activity assay; settings: 10 ng/ml RANKL for 5 days, 10 μM
Description: 10^3 cells were plated per well in 96-well plates. […] When the reaction fluid became yellow, 0.1 M, 100 μl/well NaOH was added to terminate the reaction, and OD405 was examined in 37° C. b) 3 μl/well supernatant was examined by Bio-Red DC Protein Assay to detect the protein concentration.

RAW264.7 cells [2] = assay: MTT assay, proliferation induced by RANKL; settings: RAW264.7, 10 μM
Description: Cells were plated onto 96-well plates at a density of 10^3 cells per well. After 24 hours incubation, the different concentrations of the different drugs were administrated into the plates. […] Subsequently, the medium was removed, and 100 μl/well isopropanol was added to solved formazan. The plates were shaken for 15 minutes and stood for 15 minutes, and then the absorbance was measured at wavelength of 540 nm and 630 nm. The ratio of the absorbance of treated cells relative to that of the control cells was calculated and expressed as a percentage of cell survival.

RAW264.7 cells [3] = assay: BrdU assay, proliferation induced by RANKL; settings: RAW264.7, 10 μM
Description: The BrdU assay was followed the instructions of Cell Proliferation ELISA BrdU kit. 10^3 cells were plated per well in 96-well plates. […] After washing in wash buffer for three times, 100 μl/well Substrate reaction was added and incubated for 30 minutes at room temperature.

Structure (SMILES)	TRAP activity induced by RANKL [1]	cell proliferation induced by RANKL (MTT assay) (RAW264.7 cells [2])	cell proliferation induced by RANKL (BrdU assay) (RAW264.7 cells [3])
Cn1c(=O)c2[nH]cnc2n(C)c1=O [theophylline]	have no obviously inhibiting effect on TRAP activity induced by RANKL	have no previous inhibiting effect on cell proliferation induced by RANKL	have no previous inhibiting effect on cell proliferation induced by RANKL
CCCc1nn(C)c2c(=O)[nH]c(-c3cc(S(=O)(=O)N4CCN(C)CC4)ccc3OCC)nc12 [sildenafil]	have no obviously inhibiting effect on TRAP activity induced by RANKL	–	–

Source: patent US8507506B2, “Theophylline derivative inhibits osteoporosis” (Kaohsiung Medical University, priority 2011, dated 2013)
